Measured values published in PubChem BioAssay AID1963832 (Molecular Pharmacology Branch, DTP, NCI, 2024).

System: 885724-159-R-J1-PDC complex spheroid viability
Test: Anticancer human tumor 885724-159-R-J1-PDC patient-derived pancreatic adenocarcinoma cell line growth inhibition [POLQ]
Details: for IC50: curve of first compound; for viability, T/C: stronger effect = lower value
Summary of the method: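 Complex spheroid viability model combining PDC tumour cells with endothelial (HUVEC) and MSC stromal cells. Novobiocin, ART-558 or RP6685 were tested singly and in combination with standard and investigational anticancer drugs. Each was titrated in half-log steps from near clinical Cmax, or from 10 microM where Cmax was unknown.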

[1] = second compound 0.0316 µM, first compound 0.0316 µM
[2] = second compound 0.0316 µM, first compound 0.1 µM
[3] = second compound 0.0316 µM, first compound 0.316 µM
[4] = second compound 0.0316 µM, first compound 1 µM
[5] = second compound 0.0316 µM, first compound 3.16 µM
[6] = second compound 0.0316 µM, first compound 10 µM
[7] = second compound 0.1 µM, first compound 0.0316 µM
[8] = second compound 0.1 µM, first compound 0.1 µM
[9] = second compound 0.1 µM, first compound 0.316 µM
[10] = second compound 0.1 µM, first compound 1 µM
[11] = second compound 0.1 µM, first compound 3.16 µM
[12] = second compound 0.1 µM, first compound 10 µM
[13] = second compound 0.316 µM, first compound 0.0316 µM
[14] = second compound 0.316 µM, first compound 0.1 µM
[15] = second compound 0.316 µM, first compound 0.316 µM
[16] = second compound 0.316 µM, first compound 1 µM
[17] = second compound 0.316 µM, first compound 3.16 µM
[18] = second compound 0.316 µM, first compound 10 µM
[19] = second compound 1 µM, first compound 0.0316 µM
[20] = second compound 1 µM, first compound 0.1 µM
[21] = second compound 1 µM, first compound 0.316 µM
[22] = second compound 1 µM, first compound 1 µM
[23] = second compound 1 µM, first compound 3.16 µM
[24] = second compound 1 µM, first compound 10 µM
[25] = second compound 3.16 µM, first compound 0.0316 µM
[26] = second compound 3.16 µM, first compound 0.1 µM
[27] = second compound 3.16 µM, first compound 0.316 µM
[28] = second compound 3.16 µM, first compound 1 µM
[29] = second compound 3.16 µM, first compound 3.16 µM
[30] = second compound 3.16 µM, first compound 10 µM
[31] = second compound 10 µM, first compound 0.0316 µM
[32] = second compound 10 µM, first compound 0.1 µM
[33] = second compound 10 µM, first compound 0.316 µM
[34] = second compound 10 µM, first compound 1 µM
[35] = second compound 10 µM, first compound 3.16 µM
[36] = second compound 10 µM, first compound 10 µM
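Further: spheroids exposed to compounds for 7 days.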

Q: Which IC50 (second compound 0.0316 µM) does the source give for COc1cccc2c1C(=O)c1c(O)c3c(c(O)c1C2=O)CC(O)(C(=O)CO)CC3OC1CC(N)C(O)C(C)O1 (stereo unspecified) + Nc1ccc(C#CCN(C(=O)Cc2ncc(C(F)(F)F)cc2C(F)(F)F)c2ccc(F)cc2)nn1 here?
A: 0.158 µM

Q: And the IC50 (second compound 0.1 µM)?
A: 0.198 µM

Q: What about the IC50 (second compound 0.316 µM) of the same molecule?
A: 0.15 µM

Q: What about the IC50 (second compound 1 µM) of the same molecule?
A: 0.173 µM

Q: And the IC50 (second compound 3.16 µM)?
A: 0.163 µM

Q: And the IC50 (second compound 10 µM)?
A: 0.168 µM

Q: And the viability, T/C [1]?
A: 66.2%

Q: What about the viability, T/C [2] of the same molecule?
A: 61%

Q: What about the viability, T/C [3] of the same molecule?
A: 34%

Q: And the viability, T/C [4]?
A: 13.8%

Q: And the viability, T/C [5]?
A: 5.73%

Q: And the viability, T/C [6]?
A: 6.16%

Q: And the viability, T/C [7]?
A: 75.9%

Q: And the viability, T/C [8]?
A: 64.5%

Q: What about the viability, T/C [9] of the same molecule?
A: 40.4%

Q: And the viability, T/C [10]?
A: 12.2%

Q: And the viability, T/C [11]?
A: 6.2%

Q: What about the viability, T/C [12] of the same molecule?
A: 6.34%

Q: And the viability, T/C [13]?
A: 72.5%

Q: And the viability, T/C [14]?
A: 55.7%

Q: What about the viability, T/C [15] of the same molecule?
A: 37.7%

Q: What about the viability, T/C [16] of the same molecule?
A: 14.6%

Q: What about the viability, T/C [17] of the same molecule?
A: 5.39%

Q: What about the viability, T/C [18] of the same molecule?
A: 7.18%

Q: What about the viability, T/C [19] of the same molecule?
A: 76.7%

Q: What about the viability, T/C [20] of the same molecule?
A: 60.8%

Q: And the viability, T/C [21]?
A: 38.1%

Q: And the viability, T/C [22]?
A: 10.1%

Q: And the viability, T/C [23]?
A: 6.54%

Q: And the viability, T/C [24]?
A: 7.34%

Q: And the viability, T/C [25]?
A: 74.9%

Q: What about the viability, T/C [26] of the same molecule?
A: 60.6%

Q: What about the viability, T/C [27] of the same molecule?
A: 35.2%

Q: What about the viability, T/C [28] of the same molecule?
A: 12.9%

Q: And the viability, T/C [29]?
A: 5.75%

Q: What about the viability, T/C [30] of the same molecule?
A: 7.58%

Q: What about the viability, T/C [31] of the same molecule?
A: 70.8%

Q: And the viability, T/C [32]?
A: 61.1%

Q: What about the viability, T/C [33] of the same molecule?
A: 36.1%

Q: What about the viability, T/C [34] of the same molecule?
A: 11.3%

Q: And the viability, T/C [35]?
A: 5.42%

Q: And the viability, T/C [36]?
A: 5.67%

Q: Which results are given for O=C(c1cc(Cc2n[nH]c(=O)c3ccccc23)ccc1F)N1CCN(C(=O)C2CC2)CC1 + Nc1ccc(C#CCN(C(=O)Cc2ncc(C(F)(F)F)cc2C(F)(F)F)c2ccc(F)cc2)nn1?
A: IC50 (second compound 0.0316 µM): > 10 µM; IC50 (second compound 0.1 µM): > 10 µM; IC50 (second compound 0.316 µM): > 10 µM; IC50 (second compound 1 µM): > 10 µM; IC50 (second compound 3.16 µM): > 10 µM; IC50 (second compound 10 µM): > 10 µM; viability, T/C [1]: 90.7%; viability, T/C [2]: 97.2%; viability, T/C [3]: 95.1%; viability, T/C [4]: 88.2%; viability, T/C [5]: 89.4%; viability, T/C [6]: 80.4%; viability, T/C [7]: 95%; viability, T/C [8]: 94.5%; viability, T/C [9]: 85.7%; viability, T/C [10]: 96.7%; viability, T/C [11]: 84.1%; viability, T/C [12]: 77.6%; viability, T/C [13]: 85.4%; viability, T/C [14]: 94.5%; viability, T/C [15]: 100%; viability, T/C [16]: 87.8%; viability, T/C [17]: 86.2%; viability, T/C [18]: 75.8%; viability, T/C [19]: 101%; viability, T/C [20]: 90.6%; viability, T/C [21]: 84.6%; viability, T/C [22]: 99%; viability, T/C [23]: 88.7%; viability, T/C [24]: 84%; viability, T/C [25]: 98%; viability, T/C [26]: 92%; viability, T/C [27]: 84.7%; viability, T/C [28]: 82%; viability, T/C [29]: 88.1%; viability, T/C [30]: 80.8%; viability, T/C [31]: 102%; viability, T/C [32]: 94.3%; viability, T/C [33]: 87.4%; viability, T/C [34]: 94.1%; viability, T/C [35]: 95.6%; viability, T/C [36]: 75.6%

Q: Which results are given for O=c1[nH]cc(F)c(=O)[nH]1 + Nc1ccc(C#CCN(C(=O)Cc2ncc(C(F)(F)F)cc2C(F)(F)F)c2ccc(F)cc2)nn1?
A: IC50 (second compound 0.0316 µM): > 10 µM; IC50 (second compound 0.1 µM): > 10 µM; IC50 (second compound 0.316 µM): > 10 µM; IC50 (second compound 1 µM): > 10 µM; IC50 (second compound 3.16 µM): > 10 µM; IC50 (second compound 10 µM): > 10 µM; viability, T/C [1]: 88.7%; viability, T/C [2]: 99.5%; viability, T/C [3]: 93.2%; viability, T/C [4]: 101%; viability, T/C [5]: 100%; viability, T/C [6]: 75.2%; viability, T/C [7]: 94%; viability, T/C [8]: 100%; viability, T/C [9]: 92.1%; viability, T/C [10]: 96%; viability, T/C [11]: 87%; viability, T/C [12]: 74.9%; viability, T/C [13]: 100%; viability, T/C [14]: 98.2%; viability, T/C [15]: 92.2%; viability, T/C [16]: 90.9%; viability, T/C [17]: 89.4%; viability, T/C [18]: 82.7%; viability, T/C [19]: 96.9%; viability, T/C [20]: 88.8%; viability, T/C [21]: 96%; viability, T/C [22]: 93.2%; viability, T/C [23]: 81.3%; viability, T/C [24]: 71.7%; viability, T/C [25]: 97.1%; viability, T/C [26]: 86.4%; viability, T/C [27]: 86.9%; viability, T/C [28]: 92.8%; viability, T/C [29]: 97.5%; viability, T/C [30]: 71.6%; viability, T/C [31]: 105%; viability, T/C [32]: 109%; viability, T/C [33]: 94%; viability, T/C [34]: 86.5%; viability, T/C [35]: 92.8%; viability, T/C [36]: 81.9%
